Tests used:
Format in all cases: in vivo
[1] = test system: C57BL/6J mice subjected to ICH; experiment: Morris water-maze test (MWM) after ICH; settings: then twice daily, 72 hours after ICH, mean±SEM
Protocol: (§1) Animal Preparation and Intracerebral Infusion. Adult male C57BL/6J mice weighing 23-30 g were used. Mice were randomized to receive intraperitoneal injection of either C3aRA (1 mg/kg) (SB290157, Calbiochem, Darmstadt, Germany) diluted in PBS and DMSO (1.16% v/v), or an equal volume of vehicle (PBS and DMSO, 1.16% DMSO v/v) either 45 minutes prior to ICH induction or 6 and 12 hours after induction of ICH, followed in both cohorts by twice daily doses for 72 hours. […] Sham animals were given PBS and DMSO (1.16% v/v) in the same manner.
(§2) Mice were anesthetized with a single intraperitoneal dose of ketamine (90 mg/kg) and xylazine (5 mg/kg). […]
(§3) Neurofunction and behavioral testing. Sensorimotor function was evaluated by means of the 28-point neurological function score, corner test and forelimb placing tests, which were performed pre-operatively and at 6, 24, 48 and 72 hour post-injury. Navigational memory was evaluated with the means of a Morris water-maze (MWM) test pre-operatively and at 72 hours post ICH. […]
Morris water-maze test (MWM). […] The time, in seconds, spent by each animal to find the platform was recorded. […] The time spent in the quadrant where the platform had been situated before was recorded. […]

[2] = test system: C57BL/6J mice subjected to ICH; experiment: Forelimb placing test after ICH; settings: 1 mg/kg i.p. 45 minutes prior to ICH, then twice daily; 72 hours after ICH
Protocol: as §1, §2, §3
Forelimb placing test. […] Each animal was tested 10 times for each forelimb, and the percentage of trials in which the mouse placed the appropriate forelimb on the edge of the table after vibrissae stimulation was determined.

[3] = test system: C57BL/6J mice subjected to ICH; experiment: Histopathology, hematoma (lesion) volume after ICH; settings: 1 mg/kg i.p. 45 minutes prior to ICH, then twice daily; 72 hours after ICH; mean±SEM
Protocol: as §1
Mice were anesthetized with a single intraperitoneal dose of ketamine (90 mg/kg) and xylazine (5 mg/kg). Next, the mice were placed in a stereotactic frame (ASI Instruments, Inc., Warren, Mich., USA) and subjected to ICH using autologous blood infusion as previously described (Rynkowski M A et al, 2008, Nat Protoc 3: 122-128), Briefly, a 1-mm burr hole was drilled 2.3 mm lateral to the midline and 0.2 mm anterior to the bregma. Thirty μL of autologous whole blood were drawn from the tail artery into a capillary tube. […]
Histopathology and determination of lesion volume. […] Striatal lesion volume was determined by digitizing serial coronal sections ([…]) to span the entire hematoma. […] Volume of the lesion (mm^3) was then determined by summation of the lesion area in each coronal section and integrating over the section depth of 0.5 mm.

[4] = test system: model of focal ischemic stroke; experiment: Dose-response trial in a model of focal ischemic stroke; settings: comparing 0.1, 0.5, 1 and 5 mg/kg

NC(N)=NCCC[C@H](NC(=O)COCC(c1ccccc1)c1ccccc1)C(=O)O [C3aRA]
MWM time spent in the target quadrant ([1]; 1 mg/kg i.p. 45 minutes prior to ICH): 19.62 ± 1.08 s
MWM time spent in the target quadrant ([1]; 1 mg/kg i.p. first at 6 h and 12 h after ICH): 18.9 ± 1.3 s
forelimb placing capacity in the impaired limb [2]: no significant deficits compared with sham animals
mean hematoma volume [3]: 12.17±1.33 mm^3
most effective dose [4]: 1 mg/kg
